Test results published in paper PMC12561670, “Isolation of Dual-Active Drugs with Anticancer and Antibacterial Activities That Target Both Tubulin and FtsZ” (Antibiotics, 2025).
pKd: −log10 of the molar value. In brackets after ≈: the same amount, converted by molar mass.

Key:
[1] = test system: B. subtilis (CICC 21164); experiment: MIC, broth microdilution; type: cell-based; conditions: Bacillus subtilis; broth microdilution, 18 h, 37 °C; read-out: MIC B. subtilis (CICC 21164)
Description: MIC assays were carried out by employing the broth microdilution method in accordance with Clinical and Laboratory Standards Institute (CLSI) guidelines. E. coli BNCC337004, S. aureus BNCC336423, P. aeruginosa BNCC337099, and B. subtilis CICC 21164 were applied for the MIC detection. Mueller–Hinton broth (MHB) was used in bacterial culture, and log-phase bacteria were diluted into a 0.5 McFarland Standard suspension, which was then diluted 1000 times again. Subsequently, 100 μL of the obtained bacterial suspension was placed into each well of 96-well microtiter plates, along with 2-fold serial dilutions of compounds (512, 256, 128, 64, 32, 16, 8, 4, 2, 1, 0.5, 0 μM). The microtiter plates were incubated aerobically for 18 h at 37 °C. The MIC was defined as the lowest drug concentration at which no visible turbidity was observed. All experiments are conducted in three parallel.

[2] = target: T1, FtsZ protein (Staphylococcus aureus, UniProt P0A031); experiment: Affinity assay by SPR technology; type: binding, S. aureus
T1 construct: His tag; made in house; host or cells: E. coli BL21(DE3)
Description: FtsZ Pre-Enrichment: FtsZ purified protein was dissolved in deionized water and prepared into a 1 g/L protein stock solution. Afterwards, protein concentration was diluted to 50 mg/L, respectively, using four different pH acetate buffer solutions (pH 4.0, 4.5, 5.0, 5.5). Subsequently, samples were injected, and the response values of protein FtsZ under different pH conditions were detected using the Biacore pre-enrichment system to determine the optimal protein coupling conditions.
FtsZ Coupling: Before coupling, the CM5 chip was first activated by EDC/NHS solution for 7 min; then, protein coupling was carried out, with a coupling time of 10 min and a protein flow rate of 10 μL/min; finally, the unreacted active sites on the chip were blocked by ethanolamine for 7 min.
The compounds were dissolved in DMSO, and then diluted to 50 μM with PBS (final concentration of DMSO was 5%). The mobile phase was a PBS solution containing 5% DMSO. The response value of the samples flowing through the surface of the FtsZ protein was analyzed by the Biacore T200 system. The monomer compounds with a higher response value to FtsZ (higher than or equal to the positive control) were screened as candidate compounds.
The concentration of candidate compounds was diluted by gradient with a double ratio, with concentration ranging from 0 to 64 μM (the final concentration of DMSO was 5%). Then, the binding response value was obtained. Kinetic curves were drawn according to the dose–effect relationship between the response value and the concentration of candidate compounds, and the binding specificity of candidate compounds and FtsZ was determined according to the curve fitting. Thus, small molecular monomers that can bind specifically to the FtsZ protein were found.

[3] = test system: E. Coli BL21 (DE3); experiment: Visualization of Z-ring in bacterial cells (GFP-tagged FtsZ); type: cell-based; conditions: 64 μM, 4 h
Description: The assay was carried out using a strain of E.coli BL21 (DE3) containing an IPTG-inducible plasmid, which can produce the green fluorescence protein (GFP)-tagged FtsZ to make the Z-ring visible. An overnight culture of E.coli was replated into 1 mL fresh MHB medium and incubated at 37 °C. Until OD600 = 0.3, 40 μM IPTG (Isopropyl β-D-1-thiogalactopyranoside) was added. […] After that, they were centrifuged and re-suspended in PBS, and then observed using the Leica SP-5 laser scanning confocal microscopy. Z-ring analysis was performed by employing LAS-AF-Lite software 2.6.0.

[4] = test system: E. coli; experiment: In vivo antibacterial activity, mouse peritoneal infection; parameters: species or system CD-1 male mice
From the text: SPF grade CD-1 male mice weighing 30 ± 3 g were purchased from Shanghai Slake Experimental Animal Co., Ltd. (Shanghai, China). […] Immediately following this, the mice were intraperitoneally injected with the test compounds. Each experimental group consisted of five mice, with each compound being tested at two distinct concentration gradients (determined based on the minimum inhibitory concentration, MIC). A separate group received physiological saline as a negative control. The subsequent assessment focused on evaluating the therapeutic potential of these drugs against bacterial infections. On the first and third days post-administration, 2 mL of sterile physiological saline was injected into the peritoneal cavity of each mouse. After a gentle two-minute dilution under sterile conditions, the abdominal fluid was extracted for bacterial enumeration using the plate counting method. Furthermore, the clinical manifestations of each mouse group, encompassing mental status, appetite, and other relevant parameters, were meticulously observed over a seven-day period. On the seventh day, the mice were euthanized, and a thorough macroscopic examination was conducted to assess the pathological changes in various vital organs.

[5] = test system: S. aureus BNCC336423; experiment: Time–killing curve; type: cell-based; conditions: S. aureus BNCC336423, concentrations of 4× the MIC or greater
Description: S. aureus BNCC336423 was employed for the time–killing curve study. […] Meanwhile, DMSO with an equivalent volume was added to the vehicle control tube. The cultures were then subjected to shaking incubation at 37 °C. Subsequently, cultures were taken out at predetermined time intervals (0, 1, 2, 4, 6, 8, and 24 h), centrifuged at 16,000×g for 3 min, and diluted to an appropriate multiple. These diluted samples were then plated onto Tryptic Soy Agar (TSA) plates for enumeration. Following a 24 h incubation period at 37 °C, colonies on the TSA plates were counted for the CFU/mL, thereby providing insights into the time-dependent bactericidal activity of the tested compounds.

[6] = test system: B. subtilis; experiment: Phase-contrast microscopy, cell division inhibition; type: cell-based; conditions: 64 μM, 4 h
Description: Cell Division Inhibitory Screening Assay Cell division inhibitory activity of compounds was conducted as below. […] Afterwards, 1 mL of the sample was centrifuged at 15,000× g for 3 min at room temperature, and the bacterial pellets were washed with 1 mL of PBS before re-centrifugation. The final bacterial pellets obtained were resuspended in 5 mL PBS. 20 μL of bacterial suspension was transferred to slides for microscopy. Cell morphology was estimated by using the phase-contrast method of Olympus IX71 microscopy (Olympus Corporation, Tokyo, Japan) with 400× magnification.

[7] = test system: P. aeruginosa (DSM 939); experiment: MIC, broth microdilution; type: cell-based; conditions: Pseudomonas aeruginosa, DSM939; broth microdilution, 18 h, 37 °C; read-out: MIC P. aeruginosa (DSM 939)

T1 sequence (P0A031 whole entry): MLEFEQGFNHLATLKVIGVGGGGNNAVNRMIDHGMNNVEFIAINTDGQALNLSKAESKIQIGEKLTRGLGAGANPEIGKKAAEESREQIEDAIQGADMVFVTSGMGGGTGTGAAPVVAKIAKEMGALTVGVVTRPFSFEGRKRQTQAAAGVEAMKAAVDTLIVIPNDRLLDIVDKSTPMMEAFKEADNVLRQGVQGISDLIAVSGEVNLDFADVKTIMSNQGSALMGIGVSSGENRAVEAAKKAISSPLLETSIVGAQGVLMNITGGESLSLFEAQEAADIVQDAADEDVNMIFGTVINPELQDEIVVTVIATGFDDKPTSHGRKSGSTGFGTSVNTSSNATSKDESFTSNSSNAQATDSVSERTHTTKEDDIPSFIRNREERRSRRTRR

Compound: CC(C)(C)c1[nH]cnc1/C=c1\[nH]c(=O)/c(=C/c2ccccc2)[nH]c1=O [Compound 23, Plinabulin]
- MIC [1]: 8 µM (≈ 2.69 µg/mL)
- pKd [2]: 4.82
- Chi^2 ([2]; SPR fit): 0.234
- Rmax ([2]; SPR, CM5 chip): 11.82 RU
- Z-ring assembly [3]: disturbed the Z-ring assembly
- bacterial count of peritoneal fluid ([4]; mice i.p. E. coli, i.p. compound, days 1 and 3): substantially mitigated
- clinical presentation of infected mice ([4]; seven-day observation): exhibited vitality, maintained a healthy appetite
- logs of kill in time–kill [5]: 3 logs
- cell morphology of B. subtilis (elongation) [6]: the most pronounced effect
- MIC [7]: 32 µM (≈ 10.8 µg/mL)
